This is an account of results in patent publication US20210276967A1 (OSPEDALE SAN RAFFAELE S.R.L., priority 2018, published 2021).

SMILES strings stand for the structures.

This experiment relates to HBV. Kind of experiment: HBV inhibition in HepAD38 cells, extracellular HBV DNA by direct qPCR. The format is cell-based, hepatitis B virus. To be noted: Hepatitis B virus, HepAD38, 96 hours, read-out: HBV inhibition % (conc μM). The source says: HepAD38 cell line (Ladner et al., Antimicrob Agents Chemother, 1997, 41, 1715-20) was used for HBV inhibition assays. HepAD38 is a subclone, derived from hepatoblastoma cell line HepG2 (ATCC® Number: HB-8065™), that expresses HBV genome under the transcriptional control of a tetracycline-responsive promoter in a TET-OFF system: addition of tetracycline (TET) or doxycycline suppresses HBV replication, while its removal switches on the process allowing HBV viral particles release in the cell supernatant. HepAD38 cell line is maintained in DMEM/F12, supplemented with 10% of fetal bovine serum, 1% of glutamine, 1% of penicillin/streptomycin, 0.4 mg/ml G418 and 0.3 ug/ml tetracycline. For the HBV inhibition assay, doxycycline-free medium is used in order to allow virion production.
HBV inhibition activity in vitro was performed in 96 multiwell plates. During the initial (primary) screening compounds were first tested in triplicates at concentrations of 0.1 μM, 0.5 μM and 1 μM. For selected compounds, an 8-point dose-response curve was obtained using 1:2 serial dilutions (starting from 2.5 μM, 1.25 μM or 0.4 μM, depending on the degree of inhibition observed during the primary screening). From the dose-response curves, half maximal effective concentration (EC50) could be calculated (see also below).
In more detail, compounds—typically dissolved in DMSO stock solutions—were diluted to 2× the final desired concentration in 100 μl of the above medium (without doxycycline) and plated in three replicates in the 96-well plates.
Simultaneously, HepAD38 cells—extensively pre-washed in tetracycline-free medium in order to induce HBV production—were suspended at 2*10^4 cells in 100 μl of tetracycline-free medium and added to each well of the plate, to yield a final assay volume of 200 μl.
DMSO, used for stock solutions and compounds dilutions, is always present in the assays at a final concentration of 0.5%.
Plates were then incubated 96 hours at 37° C. and then subjected to cell viability assays and extracellular HBV quantification, in order to evaluate both the cytotoxic potential and the anti-viral activity of compounds.
Cytotoxicity was assessed by a commercial fluorescence assay that measures the metabolic activity of cells, directly related to cell viability (Cell Titer Blue, Promega). For each compound, cytotoxicity was evaluated at the same concentration employed to evaluate its anti-HBV activity. Anti-HBV activity was evaluated by quantification of extracellular HBV DNA with direct qPCR. In particular, supernatant was collected and centrifuged for cell debris clarification, viral DNA was extracted from virions by addition of lysis buffer (1 mM 1,4-dithiothreitol, 0.2% sodium dodecyl sulphate) and incubated at 95° C. for 10 min. Samples were then diluted 1:40 and real time PCR amplification was performed with SYBR green assay (Power SYBR™ Green PCR Master Mix-Thermo Fisher Scientific) and specific HBV primer (HBV-DF:5′-[…]-3′ (SEQ ID No. 1), HBV-DR:5′-[…]-3′ (SEQ ID No. 2)).
All HBV inhibition or antiviral activity data are typically reported in percent (%) relative to a non-treated reference sample. Excel and Graphpad Prism programs are typically used for data elaboration and EC50 calculation.
(Quantitative PCR measures a nucleic acid by following its amplification.)

For the compound `CNc1ccc(C(=O)Nc2cc(F)c(F)c(F)c2)cc1S(N)(=O)=O` [Example E1, 4-(methylamino)-3-sulfamoyl-N-(3,4,5-trifluorophenyl)benzamide], the inhibition at 1 µM is less than 50%.

On to `Nc1ccc(C(=O)Nc2cc(F)c(F)c(F)c2)cc1S(=O)(=O)N1CCC(O)C1` (stereo not shown) [Example E53, 4-amino-3-((3-hydroxypyrrolidin-1-yl)sulfonyl)-N-(3,4,5-trifluorophenyl)benzamide], for which the inhibition at 0.5 µM was greater than 50%. For `Nc1ccc(C(=O)Nc2ccc(F)c(Cl)c2)cc1S(=O)(=O)N1CCC(O)CC1` [Example E54, 4-amino-N-(3-chloro-4-fluorophenyl)-3-((4-hydroxypiperidin-1-yl)sulfonyl)benzamide], the inhibition at 0.5 µM was greater than 50%. For `Nc1ccc(C(=O)Nc2cc(F)c(F)c(F)c2)cc1S(=O)(=O)NC(CO)CO` [Example E48, 4-amino-3-(N-(1,3-dihydroxypropan-2-yl)sulfamoyl)-N-(3,4,5-trifluorophenyl)benzamide], the inhibition at 0.5 µM was less than 50%. Regarding `Nc1ccc(C(=O)Nc2cc(F)c(F)c(F)c2)cc1S(=O)(=O)N1CCC(O)(CO)CC1` [Example E50, 4-amino-3-((4-hydroxy-4-(hydroxymethyl)piperidin-1-yl)sulfonyl)-N-(3,4,5-trifluorophenyl)benzamide], the inhibition at 0.5 µM is greater than 50%. As for `Nc1ccc(C(=O)Nc2cc(F)c(F)c(F)c2)cc1S(=O)(=O)N[C@@H]1CC[C@@H](O)C1` (stereo in doubt) [Example E26, 4-amino-3-(N-((1R,3R)-3-hydroxycyclopentyl)sulfamoyl)-N-(3,4,5-trifluorophenyl)benzamide], the inhibition at 0.5 µM was greater than 50%. As to `Nc1ccc(C(=O)Nc2ccc(F)c(C(F)F)c2)cc1S(N)(=O)=O` [Example E9, 4-amino-N-(3-(difluoromethyl)-4-fluorophenyl)-3-sulfamoylbenzamide], the inhibition at 0.5 µM was greater than 50%. Consider `Cc1cc(N)c(S(N)(=O)=O)cc1C(=O)Nc1ccc(F)c(C(F)F)c1` [Example E68, 4-amino-N-(3-(difluoromethyl)-4-fluorophenyl)-2-methyl-5-sulfamoylbenzamide], for which the inhibition at 0.1 µM was greater than 50%.

Turning to `Cc1cc(N)c(S(N)(=O)=O)cc1C(=O)Nc1ccc(F)c(C#N)c1` [Example E69, 4-amino-N-(3-cyano-4-fluorophenyl)-2-methyl-5-sulfamoylbenzamide], the inhibition at 0.5 µM was greater than 50%. For `Nc1ccc(S(N)(=O)=O)cc1C(=O)Nc1cc(F)c(F)c(F)c1` [Example E59, 2-amino-5-sulfamoyl-N-(3,4,5-trifluorophenyl)benzamide], the inhibition at 0.5 µM was less than 50%. For the compound `C[C@H](NS(=O)(=O)c1cc(C(=O)Nc2cc(F)c(F)c(F)c2)ccc1N)C(F)(F)F` [Example E19, (S)-4-amino-N-(3,4,5-trifluorophenyl)-3-(N-(1,1,1-trifluoropropan-2-yl)sulfamoyl)benzamide], the inhibition at 0.5 µM is greater than 50%. For the compound `Cc1cc(NC(=O)c2ccc(N)c(S(N)(=O)=O)c2)ccc1F` [Example E12, 4-amino-N-(4-fluoro-3-methylphenyl)-3-sulfamoylbenzamide], the inhibition at 0.5 µM was greater than 50%. Consider `Cc1cc(N)c(S(N)(=O)=O)cc1C(=O)Nc1cc(F)c(F)c(Cl)c1` [Example E65, 4-amino-N-(3-chloro-4,5-difluorophenyl)-2-methyl-5-sulfamoylbenzamide], for which the inhibition at 0.1 µM is greater than 50%. For `N#Cc1cc(NC(=O)c2ccc(N)c(S(N)(=O)=O)c2)ccc1F` [Example E8, 4-amino-N-(3-cyano-4-fluorophenyl)-3-sulfamoylbenzamide], the inhibition at 0.5 µM is greater than 50%.

Turning to `Cc1cc(NC(=O)c2ccc(N)c(S(=O)(=O)N[C@H]3CC[C@H](O)CC3)c2)ccc1F` [Example E46], the inhibition at 0.5 µM is greater than 50%. For the compound `CC(NS(=O)(=O)c1cc(C(=O)Nc2cc(F)c(F)c(F)c2)ccc1N)c1ccccn1` (stereo not shown) [Example E42, 4-amino-3-(N-(1-(pyridin-2-yl)ethyl)sulfamoyl)-N-(3,4,5-trifluorophenyl)benzamide], the inhibition at 0.5 µM was less than 50%.

Consider `Nc1ccc(C(=O)Nc2cc(F)c(F)cc2F)cc1S(N)(=O)=O` [Example E15, 4-amino-3-sulfamoyl-N-(2,4,5-trifluorophenyl)benzamide], for which the inhibition at 0.5 µM was less than 50%.

As to `Nc1ccc(C(=O)Nc2cc(F)c(F)c(F)c2)cc1S(=O)(=O)N[C@H]1C[C@H](O)C1` [Example E25], the inhibition at 0.5 µM was greater than 50%.

Regarding `Nc1ccc(C(=O)Nc2cc(F)c(F)c(F)c2)cc1S(=O)(=O)N[C@H]1CC[C@@H](O)C1` [Example E47, 4-amino-3-(N-((1S,3R)-3-hydroxycyclopentyl)sulfamoyl)-N-(3,4,5-trifluorophenyl)benzamide], the inhibition at 0.5 µM was greater than 50%.

As to `C[C@@H](NS(=O)(=O)c1cc(C(=O)Nc2cc(F)c(F)c(F)c2)ccc1N)C(F)(F)F` [Example E18, (R)-4-amino-N-(3,4,5-trifluorophenyl)-3-(N-(1,1,1-trifluoropropan-2-yl)sulfamoyl)benzamide], the inhibition at 0.5 µM was greater than 50%. As for `Nc1ccc(C(=O)Nc2ccc(F)c(Cl)c2)cc1S(=O)(=O)N1CC(O)C1` [Example E55, 4-amino-N-(3-chloro-4-fluorophenyl)-3-((3-hydroxyazetidin-1-yl)sulfonyl)benzamide], the inhibition at 0.5 µM was greater than 50%. For the compound `CC(C)(C)OC(=O)N[C@@H]1CCC[C@@H]1NS(=O)(=O)c1cc(C(=O)Nc2cc(F)c(F)c(F)c2)ccc1N` [Example E51, tert-butyl ((1R,2S)-2-((2-amino-5-((3,4,5-trifluorophenyl)carbamoyl)phenyl)sulfonamido)cyclopentyl)carbamate], the inhibition at 1 µM was greater than 50%. Consider `Nc1ccc(C(=O)Nc2cc(F)c(F)c(F)c2)cc1S(=O)(=O)N1CCC(O)CC1` [Example E29, 4-amino-3-((4-hydroxypiperidin-1-yl)sulfonyl)-N-(3,4,5-trifluorophenyl)benzamide], for which the inhibition at 0.5 µM is greater than 50%.

For the compound `CC(C)(C)OC(=O)N1CCC(NS(=O)(=O)c2cc(C(=O)Nc3cc(F)c(F)c(F)c3)ccc2N)CC1` [Example E27, tert-butyl 4-((2-amino-5-((3,4,5-trifluorophenyl)carbamoyl)phenyl)sulfonamido)piperidine-1-carboxylate], the inhibition at 0.5 µM is less than 50%. Consider `Nc1ccc(C(=O)Nc2ccc(F)c(C(F)F)c2)cc1S(=O)(=O)N[C@H]1CC[C@H](O)CC1` [Example E44, 4-amino-N-(3-(difluoromethyl)-4-fluorophenyl)-3-(N-((1r,4r)-4-hydroxycyclohexyl)sulfamoyl)benzamide], for which the inhibition at 0.5 µM is greater than 50%. For the compound `Nc1ccc(C(=O)Nc2cc(F)c(F)c(F)c2)cc1S(=O)(=O)NC1CCNCC1` [Example E28, 4-amino-3-(N-(piperidin-4-yl)sulfamoyl)-N-(3,4,5-trifluorophenyl)benzamide], the inhibition at 0.5 µM was less than 50%. For the compound `Nc1cc(Br)c(C(=O)Nc2cc(F)c(F)c(F)c2)cc1S(N)(=O)=O` [Example E6, 4-amino-2-bromo-5-sulfamoyl-N-(3,4,5-trifluorophenyl)benzamide], the inhibition at 1 µM was greater than 50%.

For `Nc1ccc(C(=O)Nc2ccc(F)cc2Cl)cc1S(N)(=O)=O` [Example E16, 4-amino-N-(2-chloro-4-fluorophenyl)-3-sulfamoylbenzamide], the inhibition at 0.5 µM was less than 50%. Take `Cc1c(F)cc(NC(=O)c2ccc(N)c(S(N)(=O)=O)c2)cc1F` [Example E13, 4-amino-N-(3,5-difluoro-4-methylphenyl)-3-sulfamoylbenzamide]: the inhibition at 0.5 µM was less than 50%. Same read-out and setting: to `Cc1cc(N)c(S(N)(=O)=O)cc1C(=O)Nc1ccc(F)c(C(F)(F)F)c1` [Example E67, 4-amino-N-(4-fluoro-3-(trifluoromethyl)phenyl)-2-methyl-5-sulfamoylbenzamide] belongs greater than 50%; to `Nc1ccc(C(=O)Nc2cc(F)c(F)c(F)c2)cc1S(=O)(=O)Nc1ccncc1` [Example E31, 4-amino-3-(N-(pyridin-4-yl)sulfamoyl)-N-(3,4,5-trifluorophenyl)benzamide], less than 50%.

What is called inhibition is the change of the read-out against control, counted positive when it falls.
